# According to ChEMBL document CHEMBL1151342, “Psorospermin, a new antileukemic xanthone from Psorospermum febrifugum” (1980):
# Active and inactive are the calls of the source. The calls are words filed in the database; no cut-off is given here.
# Experiments:
# Format in all cases: functional
# [1] = system: KB; assay: Cytotoxicity against human KB cells; conditions: read-out: ED50 (the source's name)
# [2] = system: Echinoidea; assay: Inhibition of mitosis in sea urchin egg at 1 uM
# [3] = system: P388; assay: In vivo antitumor activity against mouse P388 cells at 8 mg/kg
smiles,measurement,setting,value
COc1cc2c(c3oc4c(O)cccc4c(=O)c13)C[C@H]([C@@]1(C)CO1)O2 [PSOROSPERMIN],EC50,[1],0.1 µg/mL
same,Activity,[2],Active
same,T/C,[3],158%
